We go through one molecule from patent publication US20140271670A1, “COMPOSITIONS FOR TREATING SKIN DISORDERS” (priority 2013, published 2014).

The experiment concerns Propionibacterium acnes (ATCC #6919). The experiment is described as follows: In vitro reduction of P. acnes population (plate counts after timed exposure). The class given is cell-based. On the procedure: In vitro experiments show the effectiveness of a composition comprising salicylic acid and anti-P. acnes immunoglobulin at reducing a specific microorganism population.
The microorganism of interest in the described experiments was Propionibacterium acnes. A stock suspension of P. acnes was prepared by inoculating a sample of P. acnes (ATCC #6919) in Reinforced Clostria broth at 36±1° C. for 5 days anaerobically. This stock suspension was divided into four equal batches. The first batch served as a no treatment control group. The second batch was treated with 2% salicylic acid. The third batch was treated with 3 ppm anti-P. acnes IgY at 95% purity. The fourth batch was treated with 2% salicylic acid and 3 ppm anti-P. acnes IgY at 95% purity. At time intervals 30 seconds, 1 minute, 5 minutes, 12 hours, and 24 hours, 1.0 ml from the inoculated control and test batches was taken and placed into 9.0 ml of neutralizing broth (1:10 dilution). Additional dilutions were made using neutralizing broth to achieve 1:100, 1:1000 and 1:10,000 dilutions. One milliliter from each dilution was plated into TSA+5% sheep blood. The plates were incubated at 36±1° C. for 5 days anaerobically. After the incubation period, all plates were counted to determine the number of microorganism at each time point.

For `O=C(O)c1ccccc1O` [2% SA, salicylic acid (o-hydroxybenzoic acid)], the number of microorganism is reported as 7.20E+05 (Exposure Time 30 sec.); under 10 (Exposure Time 12 hours); under 10 (Exposure Time 24 hours); 8.20E+05 (Exposure Time Initial, P. acnes stock suspension). The “time after which a 99% kill rate was reached” value (used alone) is 12 h. Further, for the setting “within the first 30 seconds”, the “reduction of the concentration of P. acnes” value is on record as “about 12%”.
